PMC11087051, “Large-scale deorphanization of Nematostella vectensis neuropeptide G protein-coupled receptors supports the independent expansion of bilaterian and cnidarian peptidergic systems” (eLife, 2024)
Residues, ends and D or L forms follow the SMILES beside them.

Assay: Maximal solubility of the synthetic peptides in water and in DMSO (sheet Peptide_mixes)
Format: physicochemical
Settings: for max solve (DMSO): in DMSO, number in brackets in the cell; for max solve water: in water, number before the bracket in the cell
Excerpt: Supplement elife-90674-supp3.xlsx, sheet "Peptide_mixes"

Row | Compound | max solve (DMSO) | max solve water
1 | CC(C)C[C@H](NC(=O)CNC(=O)[C@@H]1CCCN1C(=O)[C@@H]1CCCN1C(=O)[C@@H](N)CS)C(=O)N[C@@H](Cc1c[nH]c2ccccc12)C(=O)N[C@@H](CS)C(N)=O [Am_CCa] (H-CPPGLWC-NH2) | 10 mg/mL | 5 mg/mL
2 | CC(C)C[C@H](NC(=O)[C@H](CO)NC(=O)[C@H](CCC(=O)O)NC(=O)CNC(=O)[C@H](CC(=O)O)NC(=O)[C@@H](NC(=O)[C@H](CCC(=O)O)NC(=O)[C@@H]1CCC(=O)N1)[C@@H](C)O)C(=O)N[C@@H](CCCCN)C(=O)N[C@@H](CCCCN)C(=O)N[C@@H](C)C(=O)N[C@@H](CCC(=O)O)C(=O)N[C@@H](CCC(=O)O)C(=O)N[C@@H](CCC(=O)O)C(=O)N[C@@H](Cc1ccccc1)C(=O)N[C@H](C(=O)O)C(C)C [EFV] (HELM PEPTIDE1{[Glp].E.T.D.G.E.S.L.K.K.A.E.E.E.F.V}$$$$V2.0) | 10 mg/mL | 5 mg/mL
3 | C[C@H](NC(=O)[C@H](CCCCN)NC(=O)[C@H](Cc1ccccc1)NC(=O)[C@@H](N)Cc1ccccc1)C(N)=O [FFKAa] (H-FFKA-NH2) | 10 (10) mg/ml | 10 (10) mg/ml
4 | CC(C)C[C@H](NC(=O)[C@@H](N)Cc1ccccc1)C(=O)N[C@@H](CCCNC(=N)N)C(=O)N[C@@H](CC(N)=O)C(N)=O [FLRNa] (H-FLRN-NH2) | 10 (10) mg/ml | 10 (10) mg/ml
5 | CSCC[C@H](NC(=O)[C@H](CC(C)C)NC(=O)CNC(=O)[C@@H]1CCC(=O)N1)C(=O)N[C@@H](Cc1ccccc1)C(=O)N[C@@H](CCCNC(=N)N)C(=O)N1CCC[C@H]1C(N)=O [FRPa2] (HELM PEPTIDE1{[Glp].G.L.M.F.R.P.[am]}$$$$V2.0) | 10 mg/mL | 5 mg/mL
6 | CC(C)C[C@H](NC(=O)[C@@H]1CCC(=O)N1)C(=O)N[C@@H](Cc1ccccc1)C(=O)N[C@@H](CCCNC(=N)N)C(=O)N1CCC[C@H]1C(N)=O [FRPa4] (HELM PEPTIDE1{[Glp].L.F.R.P.[am]}$$$$V2.0) | 10 (10) mg/ml | 10 (10) mg/ml
7 | CC[C@H](C)[C@H](NC(=O)[C@H](CC(C)C)NC(=O)[C@@H]1CCC(=O)N1)C(=O)N[C@@H](Cc1ccccc1)C(=O)N[C@@H](CCCNC(=N)N)C(=O)N1CCC[C@H]1C(N)=O [FRPa] (HELM PEPTIDE1{[Glp].L.I.F.R.P.[am]}$$$$V2.0) | 10 mg/mL | 5 mg/mL
8 | CC(C)[C@H](NC(=O)[C@H](CCCNC(=N)N)NC(=O)[C@H](Cc1ccc(O)cc1)NC(=O)[C@@H](N)Cc1ccccc1)C(N)=O [FYRVa] (H-FYRV-NH2) | 10 mg/mL | 2 mg/mL
9 | CC(C)C[C@H](NC(=O)CNC(=O)[C@@H]1CCCN1C(=O)[C@@H]1CCCN1C(=O)[C@H](CS)NC(=O)[C@@H]1CCC(=O)N1)C(=O)N[C@@H](Cc1c[nH]c2ccccc12)C(=O)NCC(=O)N[C@@H](CS)C(=O)O [GLWG] (HELM PEPTIDE1{[Glp].C.P.P.G.L.W.G.C}$$$$V2.0) | 10 (10) mg/ml | 10 (10) mg/ml
10 | CC(C)C[C@@H]1NC(=O)CNC(=O)[C@@H]2CCCN2C(=O)[C@@H]2CCCN2C(=O)[C@@H](NC(=O)[C@@H]2CCC(=O)N2)CSSC[C@@H](C(=O)O)NC(=O)CNC(=O)[C@H](Cc2c[nH]c3ccccc23)NC1=O [GLWGcc] (HELM PEPTIDE1{[Glp].C.P.P.G.L.W.G.C}$PEPTIDE1,PEPTIDE1,2:R3-9:R3$$$V2.0) | 10 mg/mL | 2 mg/mL
11 | CC(C)C[C@H](NC(=O)[C@H](CCCNC(=N)N)NC(=O)[C@@H](NC(=O)[C@H](CC(N)=O)NC(=O)[C@H](C)NC(=O)[C@H](CCCCN)NC(=O)[C@H](CS)NC(=O)[C@H](CC(C)C)NC(=O)[C@H](Cc1c[nH]c2ccccc12)NC(=O)[C@H](CC(C)C)NC(=O)CNC(=O)[C@@H]1CCCN1C(=O)[C@@H]1CCCN1C(=O)[C@H](CS)NC(=O)[C@H](Cc1c[nH]cn1)NC(=O)CNC(=O)[C@H](CC(N)=O)NC(=O)[C@@H]1CCC(=O)N1)[C@@H](C)O)C(=O)O [GLWL] (HELM PEPTIDE1{[Glp].N.G.H.C.P.P.G.L.W.L.C.K.A.N.T.R.L}$$$$V2.0) | 10 mg/mL | 5 mg/mL
12 | CC(C)C[C@H](NC(=O)[C@H](CCCNC(=N)N)NC(=O)[C@@H](NC(=O)[C@H](CC(N)=O)NC(=O)[C@H](C)NC(=O)[C@H](CCCCN)NC(=O)[C@@H]1CSSC[C@H](NC(=O)[C@H](Cc2c[nH]cn2)NC(=O)CNC(=O)[C@H](CC(N)=O)NC(=O)[C@@H]2CCC(=O)N2)C(=O)N2CCC[C@H]2C(=O)N2CCC[C@H]2C(=O)NCC(=O)N[C@@H](CC(C)C)C(=O)N[C@@H](Cc2c[nH]c3ccccc23)C(=O)N[C@@H](CC(C)C)C(=O)N1)[C@@H](C)O)C(=O)O [GLWLcc] (HELM PEPTIDE1{[Glp].N.G.H.C.P.P.G.L.W.L.C.K.A.N.T.R.L}$PEPTIDE1,PEPTIDE1,5:R3-12:R3$$$V2.0) | 5 (5) mg/ml | 5 (5) mg/ml
13 | CC(C)C[C@H](NC(=O)CNC(=O)[C@@H]1CCCN1C(=O)[C@H](C)NC(=O)CNC(=O)[C@H](C)NC(=O)[C@@H]1CCC(=O)N1)C(=O)N[C@@H](Cc1c[nH]c2ccccc12)C(N)=O [GLWa1] (HELM PEPTIDE1{[Glp].A.G.A.P.G.L.W.[am]}$$$$V2.0) | 10 mg/mL | 5 mg/mL
14 | CC(C)C[C@H](NC(=O)CNC(=O)[C@@H]1CCCN1C(=O)[C@@H]1CCCN1C(=O)CNC(=O)[C@H](C)NC(=O)[C@@H]1CCC(=O)N1)C(=O)N[C@@H](Cc1c[nH]c2ccccc12)C(N)=O [GLWa2] (HELM PEPTIDE1{[Glp].A.G.P.P.G.L.W.[am]}$$$$V2.0) | 10 (10) mg/ml | 10 (10) mg/ml
15 | CSCC[C@H](NC(=O)[C@H](C)NC(=O)[C@@H]1CCC(=O)N1)C(=O)N[C@@H](CCC(N)=O)C(=O)N[C@@H](Cc1c[nH]c2ccccc12)C(=O)NCC(=O)N[C@@H](Cc1c[nH]cn1)C(=O)N[C@@H](CCCCN)C(=O)NCC(=O)N[C@@H](Cc1c[nH]c2ccccc12)C(=O)N[C@@H](C)C(=O)O [GWA1] (HELM PEPTIDE1{[Glp].A.M.Q.W.G.H.K.G.W.A}$$$$V2.0) | 10 mg/mL | 0 mg/mL
16 | CC[C@H](C)[C@H](NC(=O)[C@H](Cc1c[nH]cn1)NC(=O)[C@H](Cc1ccccc1)NC(=O)[C@H](Cc1ccccc1)NC(=O)[C@H](CO)NC(=O)[C@@H]1CCCN1C(=O)[C@H](CCC(=O)O)NC(=O)CNC(=O)[C@H](CC(C)C)NC(=O)[C@H](CC(=O)O)NC(=O)[C@H](CC(C)C)NC(=O)[C@H](Cc1ccc(O)cc1)NC(=O)[C@@H]1CCCN1C(=O)[C@@H]1CCCN1C(=O)[C@@H]1CCC(=O)N1)C(=O)N[C@@H](CCCNC(=N)N)C(N)=O [HIRa1] (HELM PEPTIDE1{[Glp].P.P.Y.L.D.L.G.E.P.S.F.F.H.I.R.[am]}$$$$V2.0) | 10 (10) mg/ml | 10 (10) mg/ml
17 | CC[C@H](C)[C@H](NC(=O)[C@H](Cc1c[nH]cn1)NC(=O)[C@H](Cc1ccccc1)NC(=O)[C@H](Cc1ccc(O)cc1)NC(=O)[C@H](C)NC(=O)[C@@H]1CCCN1C(=O)[C@@H](NC(=O)[C@H](CC(C)C)NC(=O)[C@H](CC(=O)O)NC(=O)[C@H](CC(C)C)NC(=O)[C@H](Cc1ccc(O)cc1)NC(=O)[C@@H]1CCCN1C(=O)[C@@H]1CCCN1C(=O)[C@@H]1CCC(=O)N1)[C@@H](C)O)C(=O)N[C@@H](CCCNC(=N)N)C(N)=O [HIRa3] (HELM PEPTIDE1{[Glp].P.P.Y.L.D.L.T.P.A.Y.F.H.I.R.[am]}$$$$V2.0) | 10 mg/mL | 5 mg/mL
18 | CC[C@H](C)[C@H](NC(=O)[C@H](Cc1c[nH]cn1)NC(=O)[C@H](Cc1ccccc1)NC(=O)[C@H](Cc1ccc(O)cc1)NC(=O)[C@H](C)NC(=O)[C@@H]1CCCN1C(=O)CNC(=O)[C@H](CC(C)C)NC(=O)[C@H](CC(=O)O)NC(=O)[C@H](CC(C)C)NC(=O)[C@@H]1CCCN1C(=O)[C@@H]1CCCN1C(=O)[C@@H]1CCC(=O)N1)C(=O)N[C@@H](CCCNC(=N)N)C(N)=O [HIRa4] (HELM PEPTIDE1{[Glp].P.P.L.D.L.G.P.A.Y.F.H.I.R.[am]}$$$$V2.0) | 10 mg/mL | 5 mg/mL
19 | CC(C)C[C@H](NC(=O)[C@H](Cc1c[nH]cn1)NC(=O)[C@H](CO)NC(=O)[C@H](CC(C)C)NC(=O)[C@@H]1CCCN1C(=O)[C@@H]1CCCN1C(=O)[C@@H]1CCC(=O)N1)C(=O)N[C@@H](CO)C(N)=O [HLSa] (HELM PEPTIDE1{[Glp].P.P.L.S.H.L.S.[am]}$$$$V2.0) | 5 mg/mL | 0 mg/mL
20 | CC(C)C[C@H](NC(=O)[C@H](CO)NC(=O)[C@H](C)NC(=O)[C@@H](NC(=O)[C@H](CC(=O)O)NC(=O)[C@H](CC(N)=O)NC(=O)[C@H](CCC(=O)O)NC(=O)[C@H](CO)NC(=O)[C@@H](NC(=O)[C@H](CCC(=O)O)NC(=O)[C@H](CO)NC(=O)[C@@H](NC(=O)[C@H](CO)NC(=O)[C@@H]1CCCN1C(=O)[C@H](CC(C)C)NC(=O)[C@@H]1CCC(=O)N1)C(C)C)C(C)C)C(C)C)C(=O)N[C@@H](CC(C)C)C(=O)N[C@@H](CCCNC(=N)N)C(=O)N[C@@H](CCC(=O)O)C(=O)O [LRE] (HELM PEPTIDE1{[Glp].L.P.S.V.S.E.V.S.E.N.D.V.A.S.L.L.R.E}$$$$V2.0) | 5 mg/mL | 0 mg/mL
21 | CC(C)C[C@H](NC(=O)CNC(=O)[C@@H]1CCC(=O)N1)C(=O)N[C@@H](CCCNC(=N)N)C(=O)N[C@@H](Cc1c[nH]c2ccccc12)C(N)=O [LRWa1] (HELM PEPTIDE1{[Glp].G.L.R.W.[am]}$$$$V2.0) | 5 mg/mL | 0 mg/mL
22 | CC(C)C[C@H](NC(=O)CNC(=O)CNC(=O)[C@@H]1CCC(=O)N1)C(=O)N[C@@H](CCCNC(=N)N)C(=O)N[C@@H](Cc1c[nH]c2ccccc12)C(N)=O [LRWa2] (HELM PEPTIDE1{[Glp].G.G.L.R.W.[am]}$$$$V2.0) | 10 mg/mL | 5 mg/mL
